Laboratory results published in patent US20060127400A1, “Activation of regulatory T cells by alpha-melanocyte stimulating hormone” (THE SCHEPENS EYE RESEARCH INSTITUTE, INC., priority 1999, published 2006).
Entries after “also recorded” stand apart in the source; their conditions may differ. No end group written: not given here.

Assays:
primed T cells = assay: proliferation of TCR-stimulated primed T cells (3H-thymidine incorporation); assay type: cell-based, mouse (BALB/c); conditions: primed T cells + anti-CD3ε 2C11, α-MSH present, 3H-thymidine at 24 h, counted at 48 h
CD3ε = assay: tyrosine phosphorylation of CD3ε, immunoprecipitation and anti-phosphotyrosine immunoblot; assay type: cell-based, mouse
Procedure: Immunoprecipitation and Immunoblotting. Enriched primed T cells (2×10^6 cells) in a 24 well Corning plate were TCR-stimulated with 2C11 in the presence of α-MSH (30 pg/ml) under serum-free conditions for 15 minutes. The T cells were collected, placed in a microcentrifuge tube and washed once with 10 mM Tris buffered saline (TBS) and lysed for 30 minutes in 100 μl of ice cold lysate buffer (10 mM TBS, 1% NP-40, 0.5% sodium deoxycholate, 0.1% SDS, 100 μg/ml phenylmethylsulfonyl fluoride (PMSF), 60 μg/ml Aprotinin, and 1 mM sodium orthovanadate). The cells were passed through a 21 gauge needles three times, and an additional 2 μl of 10 mg/ml PMSF was added. The tubes were incubated for an additional 30 minutes on ice and were centrifuged for 20 minutes, 4° C., 13,000×g. The supernatant was collected and used as total cellular lysate. The protein concentration was measured, and added to equal amounts of protein lysate were 20 μg/ml anti-CD3ζ antibody, or anti-CD3ε antibody plus rabbit anti-hamster IgG antibody and incubated overnight at 4° C. The rabbit anti-hamster IgG was needed for the CD3ε immunoprecipitation, since much of the CD3ε was bound by 2C11 a hamster anti-mouse […] and hamster antibody weakly binds protein-G. Protein-G sepharose beads (Pharmacia, Piscataway, N.J.) were added to the antibody containing lysates and incubated for 1 hour at room temperature with end over end agitation. The beads were centrifuged and washed 4 times with 10 mM TBS containing 0.5% sodium deoxycholate. After the final wash the beads were resuspended in 20 μl of distilled water and 20 μl non-reducing SDS Tris-glycine sample buffer (Novex, San Diego, Calif.), boiled for 5 minutes and applied into two wells (20 μl) of a 8-16% Tris-glycine polyacrylamide gel (Novex).
Following electrophoresis in a Novex Xcell II minicell and blot module, the proteins were transferred from the gel onto a nitrocellulose membrane (Novex) by electroblotting. The membrane was blocked with 1% BSA in 0.01 M TBS for 1 hour room temperature. […] Membranes were digitally photographed and analyzed using NIH Image software to integrate the band intensities relative to band area minus background. […]
The enriched primed T cells (2×10^6 cells) were incubated with anti-CD3 in the presence of α-MSH (30 pg/ml) for 15 minutes. […] The immunoprecipitates were analyzed by non-reducing SDS-PAGE (on a 8-16% gradient gel), followed by transfer to a nitrocellulose filter and immunoblotting with anti-phosphotyrosine antibody: (1) Unstimulated primed T cells treated with α-MSH; (2) Unstimulated primed T cells incubated in media alone; (3) Enriched primed T cells TCR-stimulated in the absence of α-MSH; (4) Enriched primed T cells TCR-stimulated in the presence of α-MSH. […]

EAU = conditions: direct injections into eyes of mice; cited from earlier work

With “α-melanocyte stimulating hormone (SYSMEHFRWGKPV; not fully specified; ends and bridges not checked; UniProt P01189 138-150, looked up) [α-MSH, synthetic α-MSH (Peninsula Laboratories); thirteen-amino acid neuropeptide derived from POMC]” as the substance, how does the “TCR-stimulated T cell proliferation” value (primed T cells) read?
The value was “no affect; also recorded: no effect”.

What about the “level of tyrosine phosphorylation of CD3ε chains” value (CD3ε; TCR-stimulated and unstimulated primed T cells, Example I (FIG. 7B)) of the same substance?
The value was “no effect”.

What about the “relative intensity of phosphotyrosine band, CD3ε” value (CD3ε; TCR-stimulated primed T cells, α-MSH 30 pg/ml, 15 minutes (lane 4; without α-MSH 10)) of the same substance?
Its value is 10.

What about the “overall level of tyrosine phosphorylation of CD3ε” value (CD3ε; TCR-stimulated primed T cells, α-MSH 30 pg/ml, 15 minutes, Example III (FIG. 18A)) of the same substance?
The value was “no significant change”.

And the “relative intensity of phosphotyrosine band, CD3ε” value (CD3ε; unstimulated primed T cells, α-MSH 30 pg/ml, 15 minutes (lane 1; media alone 1))?
Its value is 1.

And the “severity of inflammation and recovery in EAU” value (EAU)?
The value was “suppress the severity of the inflammation and accelerate recovery”.
